In ChEMBL document CHEMBL1201862, “PubChem BioAssay data set” (2004):
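96-well plates; 48 h exposure; 5 concentrations. Endpoints by linear interpolation between flanking doses. Not reached: highest tested concentration assigned. GI50 = concentration required for 50% inhibition of growth.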 The source made the active and inactive calls. Cut-off read from the data, not from the text of the source: active = GI50 up to about 1.1 µM and inactive = higher.

Tests used:
Experiment in all cases: NCI-60 cell line screen, 48 h
[1] = tested on: BT-549
[2] = tested on: M19-MEL
[3] = tested on: XF498
[4] = tested on: DLD-1
[5] = tested on: DMS-273
[6] = tested on: DMS-114
[7] = tested on: SNB-78
[8] = tested on: KM-20L2

SMILES: CCC/C(Cl)=N/OC(=O)Nc1cc(C(F)(F)F)ccc1OC
- GI50 [1]: 15.5 µM (inactive)

SMILES: O=C(N[C@@H](Cc1ccccc1)B(O)O)[C@H](Cc1cccc2ccccc12)NC(=O)N1CCOCC1
- GI50 [1]: 0.000468 µM (active)

SMILES: [O-]/[N+](=C\c1ccccc1OC(=S)S)c1ccc(Cl)cc1
- GI50 [1]: 24.1 µM (inactive)

SMILES: COc1ccc2c(C)cc(N/N=C/c3ccc(OC)c4ccccc34)nc2c1
- GI50 [1]: 20.1 µM (inactive)

SMILES: Cc1ccc2nnc(NS(=O)(=O)c3cc(C)c(Cl)cc3S)n2n1
- GI50 [1]: > 100 µM (inactive)

SMILES: NNc1[nH]c(=S)[nH]c1C(N)=O
- GI50 [1]: > 100 µM (inactive)

SMILES: COc1ccc(Cc2nc3cc(C(F)(F)F)ccc3n2CCCN(C)C)cc1
- GI50 [1]: 15.3 µM (inactive)

SMILES: C=CCN1C(=O)NC(=O)/C(=C/c2c3ccccc3cc3ccccc23)C1=O
- GI50 [2]: 34.4 µM (inactive)
- GI50 [3]: 21.8 µM (inactive)
- GI50 [4]: 18.9 µM (inactive)
- GI50 [5]: 20.8 µM (inactive)
- GI50 [6]: 19.1 µM (inactive)
- GI50 [7]: 21.1 µM (inactive)

SMILES: C/C(Cc1ccc2c(c1)OCO2)=N\N=c1\sc2ccccc2n1C
- GI50 [1]: > 100 µM (inactive)

SMILES: O=C1CCCC/C1=C\c1ccc(Cl)c(Cl)c1
- GI50 [2]: 20.7 µM (inactive)
- GI50 [4]: 23.2 µM (inactive)
- GI50 [5]: 20 µM (inactive)
- GI50 [8]: 20.7 µM (inactive)
- GI50 [6]: 18.7 µM (inactive)
- GI50 [7]: 19.1 µM (inactive)

SMILES: COC(=O)Nc1nc(=O)c2cc(OC)c(OC)cc2[nH]1
- GI50 [1]: 15.3 µM (inactive)

SMILES: Fc1cc(-c2cc(-c3ccccc3)no2)c(Cl)cc1Cl
- GI50 [1]: 18.5 µM (inactive)

SMILES: Cc1cn(C2CC(O)C(Cn3nncc3Cn3cnc4c(N)ncnc43)O2)c(=O)[nH]c1=O (configuration not stated)
- GI50 [1]: > 100 µM (inactive)

SMILES: Cc1cc2ncn(C3CCCO3)c2cc1C (configuration not stated)
- GI50 [1]: > 100 µM (inactive)

SMILES: CCCCc1ccc(Nc2nc(S)c3ncn(COCCO)c3n2)cc1
- GI50 [1]: 56.9 µM (inactive)

SMILES: c1ccc(C(=NCCC2CNc3ccccc32)c2ccccc2)cc1 (configuration not stated)
- GI50 [1]: > 100 µM (inactive)

SMILES: CN(C(=O)c1ccco1)C(=S)N1CCN(c2ccccn2)CC1
- GI50 [2]: > 100 µM (inactive)
- GI50 [3]: > 100 µM (inactive)
- GI50 [4]: > 100 µM (inactive)
- GI50 [5]: > 100 µM (inactive)
- GI50 [8]: > 100 µM (inactive)
- GI50 [7]: > 100 µM (inactive)

SMILES: c1ccc(-c2c3c(nc4c2CC[C@H]4NC2=NCCN2)[C@@H](NC2=NCCN2)CC3)cc1
- GI50 [1]: > 40.3 µM (inactive)

SMILES: CCCCCCCCCc1cc(O)c(O)cc1CCCCCCCCC
- GI50 [1]: > 10 µM (inactive)

SMILES: CC(=O)Oc1c(C)c2c(c3ccccc13)OC(C)(C)C2
- GI50 [1]: 24.7 µM (inactive)

SMILES: C[C@]12CC[C@H](O)CC1=CC[C@@H]1[C@@H]2CC[C@]2(C)NC(=O)/C(=C\c3ccccc3)C[C@@H]12
- GI50 [1]: 17 µM (inactive)

SMILES: CC1=C2N3C[C@@H](n4c(=O)n(C)c(=O)n43)C23CCC1n1c(=O)n(C)c(=O)n13
- GI50 [2]: > 100 µM (inactive)
- GI50 [3]: > 100 µM (inactive)
- GI50 [4]: 69.2 µM (inactive)
- GI50 [5]: 38.6 µM (inactive)
- GI50 [8]: > 100 µM (inactive)
- GI50 [6]: 30.8 µM (inactive)
- GI50 [7]: > 100 µM (inactive)

SMILES: N#Cc1sc2c(c1O)c(=O)n(-c1ccccc1)c(=S)n2-c1ccccc1
- GI50 [1]: > 100 µM (inactive)

SMILES: COc1ccc2[nH]c3c(C)c4c(c(C)c3c2c1)CN(C)C=C4
- GI50 [2]: 1.02 µM (active)
- GI50 [3]: 1.07 µM (active)
- GI50 [4]: 1.92 µM (inactive)
- GI50 [5]: 0.75 µM (active)
- GI50 [8]: 2.75 µM (inactive)
- GI50 [6]: 0.398 µM (active)
- GI50 [1]: 1.97 µM (inactive)
- GI50 [7]: 0.432 µM (active)

SMILES: COc1cccc2c1C(=O)c1c(O)c3c(c(O)c1C2=O)C[C@](O)(C(=O)CO)CC3OC1CC(N)C(OC2CCCCO2)C(C)O1 (some centres not stated)
- GI50 [3]: 0.0678 µM (active)
- GI50 [4]: 0.675 µM (active)
- GI50 [5]: 0.019 µM (active)
- GI50 [8]: 0.624 µM (active)
- GI50 [7]: 1.24 µM (inactive)
